The values that follow come from patent publication US5393788A, “Phenylalkyl oxamides” (SmithKline Beecham Corporation, priority 1993, dated 1995).

One assay has as its system TNF / endotoxin shock. As to the kind of experiment: Two in vivo models of endotoxin shock (one or both, not specified). The arrangement: species or system mouse. As to conditions: for protection from the lethal effects of endotoxin shock: in vivo endotoxin shock models. The text has this:
(§1) Two models of endotoxin shock have been utilized to determine in vivo TNF activity for the compounds of Formula (1). The protocol used in these models is described in Badger et al., EPO published Application 0 411 754 A2, Feb. 6, 1991, and in Hanna, WO 90/15534, Dec. 27, 1990.

Assay [1] relates to TNF production / endotoxic shock. As to the kind of experiment: P acnes/LPS treated mice model of endotoxic shock. The format is in vivo.
Excerpt: as §1

A further assay deals with serum TNF. As to the kind of experiment: LPS/GAL mouse model of endotoxic shock. The format is in vivo.
Excerpt: as §1

On to `COc1ccc(CCNC(=O)C(N)=O)cc1OC` [Example 8, N-[2-(3,4-Dimethoxyphenyl)ethyl]oxamide], for which the “protection from the lethal effects of endotoxin shock” value in the assay on TNF / endotoxin shock was “protected the animals from endotoxic induced shock”. Also, in the assay with TNF / endotoxin shock (one or both of the in vivo assays), the “in vivo TNF levels” value is “inhibited in vivo TNF levels”.
`COc1ccc(CCNC(=O)C(N)=O)cc1OC1CCCC1` [Example 15, N-[2-(3-Cyclopentyloxy-4-methoxyphenyl)ethyl]oxamide]: the “protection from the lethal effects of endotoxin shock” value in the assay with TNF / endotoxin shock is “protection from the lethal effects of endotoxin shock”. The compound also had a survival rate in assay [1] (P acnes/LPS model, control group 100% lethality) of 80%. The TNF production entry in assay [1] (P acnes/LPS treated mice) is listed as “inhibition of TNF production”. For the same compound, the “serum TNF levels” value with serum TNF is “reduction in serum TNF levels”.
